Laboratory results reported in ChEMBL document CHEMBL3991601, “The target landscape of clinical kinase drugs” (Science, 2017).
Calls of active or inactive are those of the source.

Assays:
[1] = target: Myosin light chain kinase, smooth muscle (Homo sapiens, UniProt Q15746)
[2] = target: T1, Mitogen-activated protein kinase kinase kinase 6 (Homo sapiens, UniProt O95382)
T1 sequence (O95382 whole entry): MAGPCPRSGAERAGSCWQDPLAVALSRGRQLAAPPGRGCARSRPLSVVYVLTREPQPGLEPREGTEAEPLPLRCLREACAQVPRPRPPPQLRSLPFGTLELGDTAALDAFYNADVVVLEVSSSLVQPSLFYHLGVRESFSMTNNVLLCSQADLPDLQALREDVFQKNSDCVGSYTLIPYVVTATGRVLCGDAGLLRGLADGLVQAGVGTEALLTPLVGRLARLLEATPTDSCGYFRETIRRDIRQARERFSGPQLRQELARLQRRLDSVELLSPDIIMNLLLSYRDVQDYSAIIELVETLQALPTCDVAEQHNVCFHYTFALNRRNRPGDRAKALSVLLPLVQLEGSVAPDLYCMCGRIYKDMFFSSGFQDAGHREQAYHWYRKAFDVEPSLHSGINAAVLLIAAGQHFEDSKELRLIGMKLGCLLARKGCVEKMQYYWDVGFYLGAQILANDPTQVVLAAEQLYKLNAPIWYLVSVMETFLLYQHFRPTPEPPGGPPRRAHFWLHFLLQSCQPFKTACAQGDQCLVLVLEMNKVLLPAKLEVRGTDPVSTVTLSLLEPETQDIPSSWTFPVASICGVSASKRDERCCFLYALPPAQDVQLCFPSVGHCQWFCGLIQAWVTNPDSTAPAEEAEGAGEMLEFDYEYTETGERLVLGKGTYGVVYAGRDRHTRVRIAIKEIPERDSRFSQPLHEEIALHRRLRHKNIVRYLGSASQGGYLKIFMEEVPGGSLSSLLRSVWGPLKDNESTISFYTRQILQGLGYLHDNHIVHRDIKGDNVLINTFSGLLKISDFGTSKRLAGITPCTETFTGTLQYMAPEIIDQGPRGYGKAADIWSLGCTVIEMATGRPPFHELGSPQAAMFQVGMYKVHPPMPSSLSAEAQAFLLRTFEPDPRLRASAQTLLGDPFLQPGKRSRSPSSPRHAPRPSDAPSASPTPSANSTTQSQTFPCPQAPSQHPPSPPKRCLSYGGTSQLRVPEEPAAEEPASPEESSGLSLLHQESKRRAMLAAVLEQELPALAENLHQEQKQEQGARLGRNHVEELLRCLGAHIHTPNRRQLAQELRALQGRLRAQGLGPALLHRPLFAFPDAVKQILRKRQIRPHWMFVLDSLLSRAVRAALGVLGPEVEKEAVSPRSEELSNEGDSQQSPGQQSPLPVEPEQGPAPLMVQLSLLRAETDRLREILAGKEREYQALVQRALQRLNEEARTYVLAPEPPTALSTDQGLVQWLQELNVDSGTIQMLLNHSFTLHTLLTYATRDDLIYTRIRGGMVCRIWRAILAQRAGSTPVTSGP

[3] = target: Bone morphogenetic protein receptor type-1A (Homo sapiens, UniProt P36894)
Bone morphogenetic protein receptor type-1A, sequence (P36894 whole entry): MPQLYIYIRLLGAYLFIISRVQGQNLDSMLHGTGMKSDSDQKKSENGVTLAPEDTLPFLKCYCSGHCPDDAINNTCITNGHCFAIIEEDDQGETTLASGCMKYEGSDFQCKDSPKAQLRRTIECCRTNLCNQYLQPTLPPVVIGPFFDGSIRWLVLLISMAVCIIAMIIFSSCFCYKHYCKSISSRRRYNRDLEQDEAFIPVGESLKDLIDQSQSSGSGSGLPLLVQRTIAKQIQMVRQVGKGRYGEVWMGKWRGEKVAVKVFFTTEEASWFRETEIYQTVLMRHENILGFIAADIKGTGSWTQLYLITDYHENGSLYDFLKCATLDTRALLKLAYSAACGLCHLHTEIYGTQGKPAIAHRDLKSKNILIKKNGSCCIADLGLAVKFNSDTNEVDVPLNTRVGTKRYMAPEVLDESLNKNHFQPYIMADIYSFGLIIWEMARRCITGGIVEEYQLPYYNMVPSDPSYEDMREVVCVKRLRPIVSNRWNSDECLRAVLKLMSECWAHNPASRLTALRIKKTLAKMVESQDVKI

[4] = target: Elongation factor Tu, mitochondrial (Homo sapiens, UniProt P49411)
GTP-binding protein 4 = GTP-binding protein 4 (Homo sapiens, UniProt Q9BZE4)
TGF-beta receptor type-2 = TGF-beta receptor type-2 (Homo sapiens, UniProt P37173)
TGF-beta receptor type-2, sequence (P37173 whole entry): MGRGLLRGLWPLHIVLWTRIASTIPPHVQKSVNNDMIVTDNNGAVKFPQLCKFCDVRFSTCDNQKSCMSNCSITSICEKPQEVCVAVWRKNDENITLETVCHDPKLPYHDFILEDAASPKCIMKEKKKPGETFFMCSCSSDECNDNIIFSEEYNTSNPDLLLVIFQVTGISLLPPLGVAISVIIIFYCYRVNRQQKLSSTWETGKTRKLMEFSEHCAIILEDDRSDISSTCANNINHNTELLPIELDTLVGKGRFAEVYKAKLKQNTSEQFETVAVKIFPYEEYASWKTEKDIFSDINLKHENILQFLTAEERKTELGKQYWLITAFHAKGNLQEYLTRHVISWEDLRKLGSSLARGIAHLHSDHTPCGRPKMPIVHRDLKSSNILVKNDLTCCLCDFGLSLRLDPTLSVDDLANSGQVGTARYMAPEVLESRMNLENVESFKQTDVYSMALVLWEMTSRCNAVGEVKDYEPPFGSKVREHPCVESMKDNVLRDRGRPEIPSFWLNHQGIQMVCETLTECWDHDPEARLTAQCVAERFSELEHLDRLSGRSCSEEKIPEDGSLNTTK

[5] = target: Dual specificity tyrosine-phosphorylation-regulated kinase 1A (Homo sapiens, UniProt Q13627)
Ephrin type-B receptor 4 = target: T2, Ephrin type-B receptor 4 (Homo sapiens, UniProt P54760)
T2 sequence (P54760 whole entry): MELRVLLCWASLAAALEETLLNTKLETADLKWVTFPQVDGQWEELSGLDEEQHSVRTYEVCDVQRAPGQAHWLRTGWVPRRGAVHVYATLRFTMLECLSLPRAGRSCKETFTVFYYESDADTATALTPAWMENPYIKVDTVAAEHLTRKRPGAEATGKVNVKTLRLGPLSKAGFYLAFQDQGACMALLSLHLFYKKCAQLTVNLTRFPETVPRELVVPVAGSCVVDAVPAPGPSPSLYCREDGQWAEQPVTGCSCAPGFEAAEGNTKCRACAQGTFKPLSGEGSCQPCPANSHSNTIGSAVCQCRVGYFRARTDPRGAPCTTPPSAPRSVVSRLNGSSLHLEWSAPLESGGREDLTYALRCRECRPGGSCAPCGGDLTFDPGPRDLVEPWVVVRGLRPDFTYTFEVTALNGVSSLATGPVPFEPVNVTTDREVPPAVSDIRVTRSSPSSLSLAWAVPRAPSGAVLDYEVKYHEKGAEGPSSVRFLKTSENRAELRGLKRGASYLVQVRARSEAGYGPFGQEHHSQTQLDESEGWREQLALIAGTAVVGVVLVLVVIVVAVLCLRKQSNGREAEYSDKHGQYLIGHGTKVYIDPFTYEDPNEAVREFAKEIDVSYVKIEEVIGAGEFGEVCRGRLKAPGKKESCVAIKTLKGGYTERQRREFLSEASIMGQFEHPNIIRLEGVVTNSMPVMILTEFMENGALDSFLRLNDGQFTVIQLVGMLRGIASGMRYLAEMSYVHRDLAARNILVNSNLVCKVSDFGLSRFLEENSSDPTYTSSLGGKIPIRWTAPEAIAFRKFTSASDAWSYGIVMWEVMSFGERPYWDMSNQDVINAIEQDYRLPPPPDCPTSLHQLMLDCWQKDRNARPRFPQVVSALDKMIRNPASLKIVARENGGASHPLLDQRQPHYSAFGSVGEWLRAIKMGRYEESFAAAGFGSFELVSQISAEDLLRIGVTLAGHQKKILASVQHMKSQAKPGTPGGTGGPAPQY

[6] = target: Protein-tyrosine kinase 2-beta (Homo sapiens, UniProt Q14289)
Protein-tyrosine kinase 2-beta, sequence (Q14289 whole entry): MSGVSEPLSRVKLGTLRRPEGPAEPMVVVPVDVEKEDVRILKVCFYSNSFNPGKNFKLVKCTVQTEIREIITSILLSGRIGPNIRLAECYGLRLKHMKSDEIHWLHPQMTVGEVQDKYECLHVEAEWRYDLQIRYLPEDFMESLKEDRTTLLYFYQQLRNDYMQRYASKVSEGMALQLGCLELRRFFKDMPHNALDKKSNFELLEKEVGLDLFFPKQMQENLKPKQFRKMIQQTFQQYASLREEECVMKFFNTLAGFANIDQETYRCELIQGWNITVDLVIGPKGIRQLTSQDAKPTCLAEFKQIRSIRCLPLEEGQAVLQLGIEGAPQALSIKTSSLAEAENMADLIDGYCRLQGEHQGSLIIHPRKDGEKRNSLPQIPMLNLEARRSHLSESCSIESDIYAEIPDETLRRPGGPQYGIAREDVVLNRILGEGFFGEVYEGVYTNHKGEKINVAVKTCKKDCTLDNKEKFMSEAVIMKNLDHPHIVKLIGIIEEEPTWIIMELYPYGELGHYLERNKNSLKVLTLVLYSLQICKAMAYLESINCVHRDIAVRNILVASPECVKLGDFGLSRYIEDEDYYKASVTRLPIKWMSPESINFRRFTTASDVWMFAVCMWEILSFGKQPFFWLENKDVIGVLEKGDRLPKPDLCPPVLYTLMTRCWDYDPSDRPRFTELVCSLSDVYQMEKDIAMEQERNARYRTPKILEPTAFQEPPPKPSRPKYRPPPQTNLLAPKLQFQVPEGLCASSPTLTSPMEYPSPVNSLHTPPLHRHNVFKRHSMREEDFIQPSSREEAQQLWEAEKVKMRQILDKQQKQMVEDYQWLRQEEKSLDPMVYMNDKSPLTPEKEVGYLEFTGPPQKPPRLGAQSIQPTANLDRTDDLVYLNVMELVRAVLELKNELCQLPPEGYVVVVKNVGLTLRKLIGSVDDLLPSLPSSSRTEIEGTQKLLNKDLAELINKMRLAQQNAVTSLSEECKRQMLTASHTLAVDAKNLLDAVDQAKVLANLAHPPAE

[7] = target: Platelet-derived growth factor receptor beta (Homo sapiens, UniProt P09619)
[8] = target: Glycogen synthase kinase-3 alpha (Homo sapiens, UniProt P49840)
Glycogen synthase kinase-3 alpha, sequence (P49840 whole entry): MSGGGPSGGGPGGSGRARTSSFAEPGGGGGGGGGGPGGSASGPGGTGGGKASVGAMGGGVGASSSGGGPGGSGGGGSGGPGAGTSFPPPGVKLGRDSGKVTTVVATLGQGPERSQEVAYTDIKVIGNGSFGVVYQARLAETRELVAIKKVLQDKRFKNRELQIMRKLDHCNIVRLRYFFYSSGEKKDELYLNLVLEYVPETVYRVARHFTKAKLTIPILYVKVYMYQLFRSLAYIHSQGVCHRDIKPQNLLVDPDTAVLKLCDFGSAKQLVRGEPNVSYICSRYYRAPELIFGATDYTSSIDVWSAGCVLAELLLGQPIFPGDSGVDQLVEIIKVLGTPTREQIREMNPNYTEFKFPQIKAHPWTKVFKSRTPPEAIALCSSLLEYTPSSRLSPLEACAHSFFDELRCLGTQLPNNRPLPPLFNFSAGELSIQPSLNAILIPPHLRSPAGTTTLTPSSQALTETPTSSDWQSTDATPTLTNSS

[9] = target: Insulin-like growth factor 1 receptor (Homo sapiens, UniProt P08069)
[10] = target: Cyclin-dependent kinase 4 (Homo sapiens, UniProt P11802)
Cyclin-dependent kinase 4, sequence (P11802 whole entry): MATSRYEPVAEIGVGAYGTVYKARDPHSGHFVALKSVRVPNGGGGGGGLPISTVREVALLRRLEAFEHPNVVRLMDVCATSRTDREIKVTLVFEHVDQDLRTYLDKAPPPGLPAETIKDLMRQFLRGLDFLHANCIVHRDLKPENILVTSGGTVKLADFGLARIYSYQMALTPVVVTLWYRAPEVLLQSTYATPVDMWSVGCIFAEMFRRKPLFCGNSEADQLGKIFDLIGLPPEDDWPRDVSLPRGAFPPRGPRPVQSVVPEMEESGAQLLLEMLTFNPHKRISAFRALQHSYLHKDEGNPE
Also: in the data inactive means no Kd found up to 30 µM.

Myosin light chain kinase, smooth muscle, sequence (Q15746 whole entry): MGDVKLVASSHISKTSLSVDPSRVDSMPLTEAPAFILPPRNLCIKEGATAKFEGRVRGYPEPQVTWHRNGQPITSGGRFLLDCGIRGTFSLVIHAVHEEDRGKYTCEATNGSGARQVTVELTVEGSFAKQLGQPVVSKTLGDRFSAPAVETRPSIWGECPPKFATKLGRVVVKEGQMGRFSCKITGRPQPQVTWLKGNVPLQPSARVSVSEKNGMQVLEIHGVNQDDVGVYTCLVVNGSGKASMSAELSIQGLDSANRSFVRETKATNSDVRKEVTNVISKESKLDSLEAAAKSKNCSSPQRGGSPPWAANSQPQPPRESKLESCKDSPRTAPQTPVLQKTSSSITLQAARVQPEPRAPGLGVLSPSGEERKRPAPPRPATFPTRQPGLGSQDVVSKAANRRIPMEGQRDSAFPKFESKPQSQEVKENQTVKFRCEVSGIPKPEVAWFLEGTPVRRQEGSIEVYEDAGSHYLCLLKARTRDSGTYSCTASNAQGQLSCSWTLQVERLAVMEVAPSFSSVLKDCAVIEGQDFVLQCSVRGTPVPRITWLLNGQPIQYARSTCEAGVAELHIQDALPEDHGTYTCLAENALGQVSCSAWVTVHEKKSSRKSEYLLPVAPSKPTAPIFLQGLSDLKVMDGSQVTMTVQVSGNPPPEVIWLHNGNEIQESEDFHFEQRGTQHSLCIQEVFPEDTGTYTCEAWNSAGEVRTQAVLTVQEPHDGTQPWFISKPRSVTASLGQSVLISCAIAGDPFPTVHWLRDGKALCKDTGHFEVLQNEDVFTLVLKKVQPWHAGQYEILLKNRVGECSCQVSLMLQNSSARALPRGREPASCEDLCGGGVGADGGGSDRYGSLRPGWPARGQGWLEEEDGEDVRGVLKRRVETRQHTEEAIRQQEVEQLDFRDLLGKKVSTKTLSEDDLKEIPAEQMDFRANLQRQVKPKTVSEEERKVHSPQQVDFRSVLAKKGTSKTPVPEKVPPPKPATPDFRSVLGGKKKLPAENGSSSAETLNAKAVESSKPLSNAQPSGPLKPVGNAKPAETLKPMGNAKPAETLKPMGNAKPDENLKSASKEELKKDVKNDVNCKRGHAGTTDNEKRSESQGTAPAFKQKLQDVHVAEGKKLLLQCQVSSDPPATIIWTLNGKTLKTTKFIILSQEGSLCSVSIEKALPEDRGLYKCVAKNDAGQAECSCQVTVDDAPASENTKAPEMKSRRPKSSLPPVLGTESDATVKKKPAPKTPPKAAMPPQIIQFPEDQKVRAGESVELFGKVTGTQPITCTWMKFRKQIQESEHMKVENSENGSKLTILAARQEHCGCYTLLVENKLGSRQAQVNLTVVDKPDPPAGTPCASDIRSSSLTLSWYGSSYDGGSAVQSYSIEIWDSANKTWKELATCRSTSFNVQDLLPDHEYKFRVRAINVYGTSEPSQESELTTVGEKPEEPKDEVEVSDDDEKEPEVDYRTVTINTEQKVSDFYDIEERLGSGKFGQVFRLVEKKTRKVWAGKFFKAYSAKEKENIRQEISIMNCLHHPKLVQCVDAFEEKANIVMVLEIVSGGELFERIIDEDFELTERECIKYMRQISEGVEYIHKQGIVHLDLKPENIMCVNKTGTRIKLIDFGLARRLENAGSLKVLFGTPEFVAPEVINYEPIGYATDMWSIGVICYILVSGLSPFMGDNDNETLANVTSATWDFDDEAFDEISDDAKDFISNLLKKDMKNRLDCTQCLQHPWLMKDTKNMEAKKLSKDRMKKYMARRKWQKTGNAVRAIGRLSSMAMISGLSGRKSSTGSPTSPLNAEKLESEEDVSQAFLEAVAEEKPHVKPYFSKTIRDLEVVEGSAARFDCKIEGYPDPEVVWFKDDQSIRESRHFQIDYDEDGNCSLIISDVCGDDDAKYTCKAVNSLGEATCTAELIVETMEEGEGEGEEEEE

Row | SMILES | Kd [1] | Kd [2] | Kd [3] | Kd [4] | Kd (GTP-binding protein 4) | Kd (TGF-beta receptor type-2) | Kd [5] | Kd (Ephrin type-B receptor 4) | Kd [6] | Kd [7] | Kd [8] | Kd [9] | Kd [10]
1 | NC(=O)c1ccc(N(C(N)=O)c2c(F)cccc2F)nc1-c1ccc(F)cc1F [VX-702] | 0.003 µM | > 30 µM (inactive) | > 30 µM (inactive) | > 30 µM (inactive) | > 30 µM (inactive) | > 30 µM (inactive) | > 30 µM (inactive) | > 30 µM (inactive) | > 30 µM (inactive) | > 30 µM (inactive) | > 30 µM (inactive) | > 30 µM (inactive) | > 30 µM (inactive)
2 | Cc1c(NC(=O)OC[C@@H]2COCCN2)cn2ncnc(Nc3ccc4c(cnn4Cc4cccc(F)c4)c3)c12 [AC-480] | > 30 µM (inactive) | > 30 µM (inactive) | > 30 µM (inactive) | > 30 µM (inactive) | > 30 µM (inactive) | > 30 µM (inactive) | > 30 µM (inactive) | > 30 µM (inactive) | > 30 µM (inactive) | > 30 µM (inactive) | > 30 µM (inactive) | > 30 µM (inactive) | > 30 µM (inactive)
3 | Cn1cc(-c2[nH]c3cc(NC(=O)[C@H](N)C4CCCCC4)cc4c3c2C=NNC4=O)cn1 | > 30 µM (inactive) | > 30 µM (inactive) | 0.814 µM (active) | > 30 µM (inactive) | > 30 µM (inactive) | 0.146 µM (active) | > 30 µM (inactive) | > 30 µM (inactive) | > 30 µM (inactive) | 0.1 µM (active) | > 30 µM (inactive) | > 30 µM (inactive) | > 30 µM (inactive)
4 | Cc1cc(Nc2nc(N[C@@H](C)c3ncc(F)cn3)ncc2Cl)n[nH]1 [AZD-1480] | > 30 µM (inactive) | > 30 µM (inactive) | > 30 µM (inactive) | > 30 µM (inactive) | > 30 µM (inactive) | > 30 µM (inactive) | > 30 µM (inactive) | > 30 µM (inactive) | 1.88 µM (active) | > 30 µM (inactive) | > 30 µM (inactive) | > 30 µM (inactive) | > 30 µM (inactive)
5 | C=CCn1c(=O)c2cnc(Nc3ccc(N4CCN(C)CC4)cc3)nc2n1-c1cccc(C(C)(C)O)n1 [ADAVOSERTIB] | > 30 µM (inactive) | > 30 µM (inactive) | > 30 µM (inactive) | > 30 µM (inactive) | > 30 µM (inactive) | > 30 µM (inactive) | > 30 µM (inactive) | > 30 µM (inactive) | > 30 µM (inactive) | > 30 µM (inactive) |  |  | > 30 µM (inactive)
6 | CCc1nc(C(N)=O)c(Nc2ccc(N3CCC(N4CCN(C)CC4)CC3)c(OC)c2)nc1NC1CCOCC1 [GILTERITINIB] | 0.188 µM (active) | > 30 µM (inactive) |  | 0.464 µM | > 30 µM (inactive) | > 30 µM (inactive) | > 30 µM (inactive) | > 30 µM (inactive) | 0.51 µM (active) | 0.51 µM (active) | > 30 µM (inactive) | > 30 µM (inactive) | 1.95 µM (active)
7 | Cc1cc(C(=O)Nc2cc(Oc3ccc4nc(NC(=O)C5CC5)cn4n3)ccc2C)n(C)n1 [TAK-593] | > 30 µM (inactive) | > 30 µM (inactive) | > 30 µM (inactive) | > 30 µM (inactive) | > 30 µM (inactive) | > 30 µM (inactive) | > 30 µM (inactive) | > 30 µM (inactive) | > 30 µM (inactive) |  | > 30 µM (inactive) | > 30 µM (inactive) | > 30 µM (inactive)
8 | N#CCNC(=O)c1ccc(-c2ccnc(Nc3ccc(N4CCOCC4)cc3)n2)cc1 [MOMELOTINIB] | > 30 µM (inactive) |  | > 30 µM (inactive) | > 30 µM (inactive) | > 30 µM (inactive) | > 30 µM (inactive) | > 30 µM (inactive) | > 30 µM (inactive) |  | > 30 µM (inactive) | > 30 µM (inactive) | > 30 µM (inactive) | > 30 µM (inactive)
9 | CCOc1ccn(-c2ccc(F)cc2)c(=O)c1C(=O)Nc1ccc(Oc2ccnc(N)c2Cl)c(F)c1 [BMS-777607] | > 30 µM (inactive) |  | > 30 µM (inactive) | > 30 µM (inactive) |  | > 30 µM (inactive) | > 30 µM (inactive) | > 30 µM (inactive) | > 30 µM (inactive) | > 30 µM (inactive) | > 30 µM (inactive) | > 30 µM (inactive) | > 30 µM (inactive)
10 | S=C(NCc1ccc2c(c1)OCO2)N1CCN(c2ncnc3c2oc2ccccc23)CC1 [AMUVATINIB] | > 30 µM (inactive) | > 30 µM (inactive) | > 30 µM (inactive) | > 30 µM (inactive) | > 30 µM (inactive) |  | > 30 µM (inactive) | > 30 µM (inactive) | > 30 µM (inactive) | > 30 µM (inactive) | > 30 µM (inactive) | > 30 µM (inactive) | > 30 µM (inactive)
11 | O=S(=O)(c1cccc2cnccc12)N1CCCNCC1 [FASUDIL] | > 30 µM (inactive) | > 30 µM (inactive) | > 30 µM (inactive) | > 30 µM (inactive) | > 30 µM (inactive) | > 30 µM (inactive) | > 30 µM (inactive) | > 30 µM (inactive) | > 30 µM (inactive) | > 30 µM (inactive) |  | > 30 µM (inactive) | > 30 µM (inactive)
12 | C=CC(=O)Nc1cc(Nc2nccc(-c3cn(C)c4ccccc34)n2)c(OC)cc1N(C)CCN(C)C [OSIMERTINIB] | > 30 µM (inactive) | > 30 µM (inactive) | > 30 µM (inactive) | > 30 µM (inactive) | > 30 µM (inactive) |  | > 30 µM (inactive) | > 30 µM (inactive) | > 30 µM (inactive) | > 30 µM (inactive) | > 30 µM (inactive) | > 30 µM (inactive) | > 30 µM (inactive)
